Test systems include ACHN renal; HCT-15 colon; HOP-62 NSCLC; HS 578T breast; NCI-H522 lung; OVCAR-3 ovarian; OVCAR-8 ovarian; PC-3 prostate; SNB-19 CNS; TK-10 renal.
Holding throughout (test): NCI tumour cell line growth inhibition, 48 h

The structures appear in SMILES notation.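 Following 48 hours of exposure in 96-well plates, responses at five concentrations were used to interpolate endpoints linearly. GI50: concentration for 50% inhibition of growth. TGI: total growth inhibition.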

As for `O=S(=O)(/N=c1/scc(-c2ccccc2)n1-c1ccccc1)c1ccc(N2N=C3c4ccccc4CC3C2c2cccs2)cc1` (configuration not stated), the GI50 in the experiment on ACHN renal is 42.5 µM; with HCT-15 colon, 67.3 µM; with HOP-62 NSCLC, 73.2 µM; in the experiment with HS 578T breast, 60.6 µM; in the experiment on NCI-H522 lung, 61.9 µM; in the experiment with OVCAR-3 ovarian it was over 100 µM. Further, the GI50 in the experiment with OVCAR-8 ovarian was 47.2 µM; in the experiment with PC-3 prostate, 75 µM; in the experiment on SNB-19 CNS, over 100 µM; in the experiment with TK-10 renal, 32.7 µM. For the same compound, the TGI in the experiment with ACHN renal, with HCT-15 colon, in the experiment on HOP-62 NSCLC, in the experiment with HS 578T breast, with NCI-H522 lung and in the experiment on OVCAR-3 ovarian was over 100 µM in each case. Moreover, the TGI was over 100 µM with OVCAR-8 ovarian, over 100 µM in the experiment with PC-3 prostate, over 100 µM in the experiment on SNB-19 CNS and 75.3 µM in the experiment on TK-10 renal.
For `Cc1ccc(Cl)c(Nc2ccccc2C(=O)O)c1Cl`, the GI50 is 32.7 µM in the experiment on ACHN renal; 22.7 µM in the experiment on HCT-15 colon; 31.3 µM in the experiment with HOP-62 NSCLC; 25.7 µM in the experiment with HS 578T breast; 28.3 µM with NCI-H522 lung; 20.3 µM with OVCAR-3 ovarian. Moreover, the GI50 in the experiment on OVCAR-8 ovarian is 29.6 µM; in the experiment on PC-3 prostate it was 29.9 µM; in the experiment on SNB-19 CNS, 35 µM; in the experiment with TK-10 renal, 29.2 µM. Also, the TGI is over 100 µM in the experiment on ACHN renal; 54.2 µM with HCT-15 colon; over 100 µM in the experiment on HOP-62 NSCLC; over 100 µM in the experiment on HS 578T breast; 87.2 µM in the experiment with NCI-H522 lung; 37.9 µM in the experiment on OVCAR-3 ovarian. Also, the TGI in the experiment on OVCAR-8 ovarian is over 100 µM; in the experiment with PC-3 prostate, over 100 µM; in the experiment on SNB-19 CNS, over 100 µM; in the experiment on TK-10 renal, 86 µM.
For the compound `CC(C)(C)CC(N)=O`, the TGI in the experiment with ACHN renal, in the experiment with HCT-15 colon, in the experiment with HOP-62 NSCLC, in the experiment on HS 578T breast, with NCI-H522 lung and with OVCAR-3 ovarian was over 100 µM each time. The TGI in the experiment on OVCAR-8 ovarian, in the experiment with PC-3 prostate, with SNB-19 CNS and in the experiment with TK-10 renal was over 100 µM each time.
As for `CN1C/C=C/CCOc2cccc(c2)-c2ccnc(n2)Nc2cccc(c2)C1`, the GI50 in the experiment on ACHN renal is 0.0307 µM; with HCT-15 colon it was 0.036 µM; with HOP-62 NSCLC it was 0.0422 µM; in the experiment on HS 578T breast, 0.0367 µM; with NCI-H522 lung it was 0.0522 µM; with OVCAR-3 ovarian it was 0.0336 µM. Further, the GI50 in the experiment with OVCAR-8 ovarian was 0.0412 µM; with PC-3 prostate, 0.0519 µM; in the experiment with SNB-19 CNS it was 0.0574 µM; with TK-10 renal, 0.048 µM. The TGI in the experiment on ACHN renal was determined as 1.45 µM; with HCT-15 colon, 3.18 µM; with HOP-62 NSCLC it was 0.376 µM; in the experiment with HS 578T breast, 0.438 µM; in the experiment with NCI-H522 lung, 0.233 µM; with OVCAR-3 ovarian, 1.23 µM. Further, the TGI with OVCAR-8 ovarian came out at 1.26 µM; with PC-3 prostate, 1.39 µM; in the experiment with SNB-19 CNS, 4.4 µM; with TK-10 renal, 0.506 µM.
As for `Cn1c(NCC(O)CN2CCCC2)cc(=O)n(C)c1=O` (configuration not stated), the GI50 in the experiment on ACHN renal, in the experiment with HCT-15 colon, in the experiment with HOP-62 NSCLC, with HS 578T breast, in the experiment with NCI-H522 lung and in the experiment on OVCAR-3 ovarian was over 100 µM each time. Further, the GI50 in the experiment with OVCAR-8 ovarian, in the experiment on PC-3 prostate, in the experiment on SNB-19 CNS and with TK-10 renal was over 100 µM each time. For the same compound, the TGI with ACHN renal, in the experiment with HCT-15 colon, with HOP-62 NSCLC, in the experiment with HS 578T breast, in the experiment with NCI-H522 lung and with OVCAR-3 ovarian was over 100 µM in each case. Also, the TGI in the experiment on OVCAR-8 ovarian, in the experiment on PC-3 prostate, in the experiment on SNB-19 CNS and in the experiment on TK-10 renal was over 100 µM each time.
On to `CCCCCCCCCCCCCCCCC(=O)O.CCCCCCCCCCCCCCCCCC(=O)O.CCCCCCCCCCCCCCCCCC(=O)O.CCCCCCCCCCCCCCCCCC(=O)O.CCCCCCCCCCCCCCCCCC(=O)O.CO[CH-]OC12COC1CC(O)C1(C)C(O)C(OC(C)O)C3=C(C)C(OC(=O)C(O)C([NH-])c4ccccc4)CC(O)(C(OC(=O)c4ccccc4)C21)C3(C)C.[Cu+].[Zn].[Zn].[Zn].[Zn].[Zn]` (configuration not stated), for which the GI50 with ACHN renal was 0.272 µM; in the experiment on HCT-15 colon, 0.222 µM; in the experiment on HOP-62 NSCLC, 0.0131 µM; with HS 578T breast it was 0.00335 µM; in the experiment on NCI-H522 lung it was 0.0103 µM; with OVCAR-3 ovarian it was 0.00747 µM. Further, the GI50 in the experiment on OVCAR-8 ovarian is 0.0102 µM; in the experiment with PC-3 prostate, 0.00998 µM; in the experiment on SNB-19 CNS it was 0.0105 µM; with TK-10 renal, 0.258 µM. The TGI was over 25 µM with ACHN renal; over 25 µM in the experiment with HCT-15 colon; over 20.4 µM in the experiment on HOP-62 NSCLC; 0.0297 µM in the experiment with HS 578T breast; 6.07 µM in the experiment on NCI-H522 lung; 0.388 µM with OVCAR-3 ovarian. Besides, the TGI in the experiment on OVCAR-8 ovarian is over 25 µM; in the experiment on PC-3 prostate, 5.63 µM; in the experiment on SNB-19 CNS, over 11.5 µM; in the experiment on TK-10 renal, over 25 µM.
Take `COc1cc(C(=O)Nc2cc(OC)c3ccn(C)c3c2)cc2c1C[C@]1(C)CC[C@@H](O)C(C)(C)[C@H]1O2`: the GI50 in the experiment with ACHN renal is 0.944 µM; in the experiment with HCT-15 colon it was 1.05 µM; with HOP-62 NSCLC it was 0.77 µM; in the experiment with HS 578T breast it was 0.0673 µM; in the experiment with NCI-H522 lung, 1.44 µM; in the experiment on OVCAR-3 ovarian it was 1.68 µM. Also, the GI50 in the experiment on OVCAR-8 ovarian was 2.69 µM; in the experiment on PC-3 prostate, 0.195 µM; in the experiment with SNB-19 CNS, 2.7 µM; with TK-10 renal it was 3.74 µM. Also, the TGI with ACHN renal was over 100 µM; with HCT-15 colon it was over 100 µM; in the experiment with HOP-62 NSCLC, 13.1 µM; in the experiment on HS 578T breast, 2.05 µM; in the experiment with NCI-H522 lung, 7.4 µM; in the experiment with OVCAR-3 ovarian, 4.86 µM. Besides, the TGI is 58 µM in the experiment on OVCAR-8 ovarian, over 100 µM in the experiment with PC-3 prostate, 90.2 µM with SNB-19 CNS and 43.8 µM in the experiment on TK-10 renal.
For the compound `COc1cc(C(=O)N/N=C/c2ccc(N(C)C)cc2)cc(OC)c1OC`, the GI50 was 1.28 µM in the experiment with ACHN renal; 0.447 µM with HCT-15 colon; 0.598 µM in the experiment with HOP-62 NSCLC; 0.546 µM in the experiment with HS 578T breast; 0.161 µM in the experiment with NCI-H522 lung; 0.259 µM in the experiment on OVCAR-3 ovarian. Also, the values for the GI50 in the experiment with OVCAR-8 ovarian, in the experiment with PC-3 prostate and in the experiment with SNB-19 CNS were 0.599 µM, 0.422 µM and 10.6 µM, respectively. For the same compound, the TGI in the experiment on ACHN renal was over 100 µM; in the experiment with HCT-15 colon, over 100 µM; with HOP-62 NSCLC it was over 100 µM; in the experiment with HS 578T breast, over 100 µM; in the experiment with NCI-H522 lung, 0.937 µM; in the experiment on OVCAR-3 ovarian, 0.605 µM. Further, the TGI in the experiment with OVCAR-8 ovarian, in the experiment with PC-3 prostate and in the experiment with SNB-19 CNS was over 100 µM throughout.
On to `CC(=O)Oc1ccc(/C(=C(\C)c2ccc(Cl)cc2)c2ccc(OCCN3CCCCC3)cc2)cc1`, for which the GI50 was 2.13 µM with ACHN renal; 1.61 µM with HCT-15 colon; 2.05 µM in the experiment on HOP-62 NSCLC; 2.14 µM with HS 578T breast; 1.71 µM in the experiment with NCI-H522 lung; 1.65 µM with OVCAR-3 ovarian. In addition, the GI50 in the experiment with OVCAR-8 ovarian is 2.15 µM; in the experiment with PC-3 prostate it was 1.74 µM; in the experiment on SNB-19 CNS, 2.26 µM. Moreover, the TGI in the experiment on ACHN renal is 4.03 µM; with HCT-15 colon, 3.19 µM; in the experiment on HOP-62 NSCLC it was 4.23 µM; in the experiment on HS 578T breast, 4.82 µM; with NCI-H522 lung it was 3.49 µM; in the experiment on OVCAR-3 ovarian, 3.25 µM. Also, the TGI in the experiment on OVCAR-8 ovarian is 4.88 µM; in the experiment on PC-3 prostate, 3.88 µM; in the experiment on SNB-19 CNS, 5.8 µM.
Take `OCc1ccc(N2CCc3ccccc3C2)cc1Cl`: the GI50 in the experiment with ACHN renal is 18.4 µM; in the experiment with HCT-15 colon, 3.35 µM; in the experiment on HOP-62 NSCLC, 0.0222 µM; in the experiment on HS 578T breast it was 32.6 µM; with NCI-H522 lung it was 17.2 µM; in the experiment with OVCAR-3 ovarian, under 0.0161 µM. The GI50 with OVCAR-8 ovarian was 3.66 µM; in the experiment with PC-3 prostate it was 17.2 µM; in the experiment with SNB-19 CNS it was 31 µM. Moreover, the TGI is over 78.6 µM with ACHN renal; 41.6 µM with HCT-15 colon; 24.7 µM with HOP-62 NSCLC; over 89.8 µM in the experiment on HS 578T breast; 61.1 µM in the experiment on NCI-H522 lung; 0.0389 µM with OVCAR-3 ovarian. In addition, the TGI was 36.6 µM in the experiment with OVCAR-8 ovarian, over 62.3 µM with PC-3 prostate and over 100 µM with SNB-19 CNS.
Consider `COc1ccc(-n2ccnc2-c2cc(OC)c(OC)c(OC)c2)cc1`, for which the GI50 was 1.53 µM in the experiment with HCT-15 colon; 3.59 µM in the experiment on HOP-62 NSCLC; 2.08 µM in the experiment on HS 578T breast; 2.92 µM in the experiment with NCI-H522 lung; 1.58 µM in the experiment with OVCAR-3 ovarian; 4.71 µM in the experiment with OVCAR-8 ovarian. The GI50 in the experiment on PC-3 prostate was 3.3 µM; in the experiment with SNB-19 CNS, 4.64 µM; in the experiment on TK-10 renal it was 4.19 µM. Moreover, the TGI in the experiment on HCT-15 colon is over 100 µM; in the experiment on HOP-62 NSCLC it was over 100 µM; in the experiment with HS 578T breast it was 8.29 µM; in the experiment with NCI-H522 lung, 8.12 µM; in the experiment with OVCAR-3 ovarian, 5.03 µM; in the experiment on OVCAR-8 ovarian, over 100 µM. Moreover, the figures for the TGI in the experiment with PC-3 prostate, in the experiment with SNB-19 CNS and in the experiment on TK-10 renal were over 100 µM, over 100 µM and 85 µM, respectively.
